Measurements: patent publication US20250186634A1, “METHODS OF TREATING SMALL CELL LUNG CANCER” (Evergreen Discovery, LLC., priority 2023, published 2025)

How the values were obtained:
CCK2R [1] = target: T1, CCK2R (Rattus norvegicus, UniProt P30553); test: Small molecule blocking of PP-F11-FITC fluorescent signal in AR42J cells; assay type: cell-based; conditions: 100 nM PP-F11-FITC, antagonist at 50× the concentration of PP-F11-FITC, FIG. 1A
T1 construct: rat pancreatic AR42J cells, which are known to express CCK2R; endogenous in cells; host or cells: AR42J rat pancreatic cancer cell line
T1 sequence (P30553 1-452): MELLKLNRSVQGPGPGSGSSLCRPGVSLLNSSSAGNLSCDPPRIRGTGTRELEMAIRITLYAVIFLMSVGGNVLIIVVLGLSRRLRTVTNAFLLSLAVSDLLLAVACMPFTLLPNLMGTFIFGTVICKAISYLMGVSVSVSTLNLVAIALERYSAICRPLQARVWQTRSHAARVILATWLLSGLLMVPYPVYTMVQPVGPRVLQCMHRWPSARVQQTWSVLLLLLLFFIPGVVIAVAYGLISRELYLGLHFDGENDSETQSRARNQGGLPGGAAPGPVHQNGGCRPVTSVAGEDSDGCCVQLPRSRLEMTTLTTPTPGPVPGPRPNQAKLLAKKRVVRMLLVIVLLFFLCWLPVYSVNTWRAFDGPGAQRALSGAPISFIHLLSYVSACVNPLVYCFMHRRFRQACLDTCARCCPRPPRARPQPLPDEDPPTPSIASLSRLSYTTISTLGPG
Description: Small molecule antagonism of PP-F11 in AR42J and Panc1 cell lines was evaluated by measuring the intensity of a fluorescent (“FL”) signal of FL tagged PP-F11 in the presence or absence of small molecule inhibitors.
Each blocking agent was added in a 50× excess dose concentration to saturate available receptors.
FIG. 1A depicts small molecule blocking experiments performed in rat pancreatic AR42J cells, which are known to express CCK2R. 100 nM of a fluorescently labeled version of PP-F11 (PP-F11-FITC) was added to cell culture in the absence of or the presence of various small molecule CCK2 receptor antagonists at 50× the concentration of fluorescently labeled PP-F11. To determine blocking of PP-F11, the fluorescent intensity of fluorescently labeled PP-F11 was measured in each experiment.

CCK2R [2] = target: T1, CCK2R; test: Uptake of 177Lu-EVG321 by AR42J cells pre-treated with blocking agent (gamma counting); assay type: cell-based; conditions: 2 mM blocking agent (100× excess dose), pre-treated 1 hour, 200 fmols 177Lu-EVG321 per well, two-tailed t-test, FIG. 3A-C
Description: AR42J rat pancreatic cell line were used as they express the CCK2 receptor. The AR42J rat pancreatic cancer cell line was cultured in F-12K medium from ATCC with a final concentration of FBS of 20% (v/v). Medium was changed every 2-3 days and a sub-cultivation ratio of 1:3 was used to split the cells. […] 1×10^6AR42J cells were seeded per well in a 6 well plate in 2 mL of media (DMEM: F12+10% Fetal Bovine Serum (FBS)). Cells were stored at 37° C. in an incubator starting at time 0 for 24-48 hours (depending on cell adherence). On the day of experiment, 1 hour before adding the blocking agent, the medium was changed and replaced with 2 mL of fresh media, and incubated at 37° C. degrees for 1 hour. Once the 1-hour incubation was complete, 4 μL of blocking agent was added to each well to provide a final concentration of 2 mM (i.e., 100 times more concentrated than the radioactive molecule). The plate was gently shaken and incubated at 37° C. for 1 hour. […] Samples were then analyzed using a Hidex Gamma counter to measure counts from each tube (gamma peaks of ^177Lu at 113 keV and 208 keV, 5 minutes per tube counting). […] Radioactive uptake was measured as a fraction of the added radiation at time 0 and used to calculate relative binding in counts per minute (CPM). […]

| Compound | fluorescent signal of PP-F11-FITC compared to experiment A (PP-F11-FITC only); decrease indicates blocking of PP-F11 binding (CCK2R [1]) | specific uptake of 177Lu-EVG321 (relative uptake, CPM) versus cells without blocking agent (CCK2R [2]) |
| --- | --- | --- |
| CSCC[C@H](NC(=O)[C@H](Cc1c[nH]c2ccccc12)NC(=O)CNC(=O)[C@H](Cc1ccc(O)cc1)NC(=O)[C@H](C)NC(=O)[C@@H](CCC(=O)O)NC(=O)[C@@H](CCC(=O)O)NC(=O)[C@@H](CCC(=O)O)NC(=O)[C@@H](CCC(=O)O)NC(=O)[C@@H](CCC(=O)O)NC(=O)[C@H](N)CCC(=O)O)C(=O)N[C@@H](CC(=O)O)C(=O)N[C@@H](Cc1ccccc1)C(N)=O [PP-F11] | decrease in fluorescent signal |  |
| CCCN(CCC)C(=O)C(CCC(=O)O)NC(=O)c1ccccc1 (stereo not shown) [proglumide, 4-benzamido-5-(dipropylamino)-5-oxopentanoic acid] |  | did not show as drastic and statistically significant reduction of uptake |
| CNc1cccc(NC(=O)N[C@@H]2N=C(c3ccccn3)c3ccccc3N(CC(=O)C(C)(C)C)C2=O)c1 [sograzepide, (R)-1-(1-(3,3-dimethyl-2-oxobutyl)-2-oxo-5-(pyridin-2-yl)-2,3-dihydro-1H-benzo[e][1,4]diazepin-3-yl)-3-(3-(methylamino)phenyl) urea] | decrease in fluorescent signal | significant decrease in the specific uptake |
